Like-named read-outs stand apart in the source and are kept apart here. Where a SMILES comes first, the peptide text is derived from it. [ ]: non-standard residue; d: D form. The star is where a group is joined. Levulinoyl = CC(=O)CCC(=O)*
What was measured:
[1] = test system: MDA-MB-231 (FGFR−); test: MTT cytotoxicity assay; conditions: 48 h
Description: (§1) By way of example, the in vitro cytotoxicity of the conjugate RuPC1, complex 4 and peptide P2 was determined in four human breast cancer cell lines with different levels of expression of the receptor FGFR, namely MDA-MB-231 (FGFR−), MCF-7 (FGFR−), SK-BR-3 (FGFR+), and MDA-MB-134-VI (FGFR+). The cytotoxicity of RuPC1 was also determined in the stated cell lines at controlled pH 6.8 and 7.4. The cytotoxicity of the complexes 5, 8, 9, and the reference complex (2,2′-bipyridyl)(triphenylphosphane)(f-cyclopentadienyl)ruthenium(II) trifluoromethanesulfonate, [RuCp(PPh3)(bipy)][CF3SO3] (TM34) was only determined in the cell line MDA-MB-231. All the cell lines were from the American Type Culture Collection (ATCC) and were cultured in Dulbecco's Modified Eagle Medium+Glutamax-I (Gibco) supplemented with 10% fetal bovine serum (FBS) and 1% antibiotics, excepting the MDA-MB-134-VI for which it was used the double amount of FBS. The cell cultures were kept in an incubator Heraeus at 37° C. under humidified atmosphere at 5% CO2. The cell viability was evaluated resorting to the MTT ([3-(4,5-dimethylthiazol-2-yl)-2,5-diphenyltetrazolium bromide]) colorimetric assay, which is based on the reduction of the tetrazolium salt to purple formazan by mitochondrial dehydrogenases in metabolically active cells. For the assays, the cells were seeded in 96-well plates (2×10^4 to 3×10^4 cells/200 μL) and allowed to adhere overnight. The compounds were first dissolved in dimethyl sulfoxide to obtain 10 mM stock solutions, further used to prepare the working solutions, at 0.1 to 100 μM, by dilution in the cell culture medium. Alternatively, for the assays at controlled pH 6.8 and 7.4, RuPC1 was first dissolved in a solution of 15% dimethyl sulfoxide/85% phosphate buffer (10 mM in water) to obtain 1.5 mM stock solutions further incubated for 48 hours at both pH values prior to be used to prepare the working solutions, at 0.1 to 50 μM, by dilution in the cell culture medium. In both cases, after continuous exposure of the cells to the compounds for 48 h at 37° C., the medium was removed and the cells were incubated with 200 μL of MTT solution (0.5 mg/mL) for 3 h. Then, the solution was discarded and the purple formazan formed by the viable cells was dissolved in 200 μL of dimethyl sulfoxide. The cell viability (%) was determined relative to the control (cells incubated without compounds) by measuring the absorbance at 570 nm on a PowerWave Xs Bio-Tek Instruments plate spectrophotometer. The respective values of the half maximal inhibitory concentration (IC50) were calculated with the software GraphPad Prism. All the compounds were tested in at least two independent experiments, each comprising six replicates per concentration.

[2] = Stability in organic medium (dimethyl sulfoxide) by UV-Vis spectroscopy; type: physicochemical; conditions: band 357-425 nm (λmax in column head)
Description: (§2) The stability of the complexes 4-11 in organic and aqueous media was evaluated over 24 h by UV-Vis spectroscopy at room temperature, in dark, on a Jasco V-660 spectrometer using quartz cuvettes (1 cm optical path length). The electronic spectra (270-900 nm) were acquired at regular periods of time (0 h, 0.25 h, 0.5 h, 0.75 h, 1 h, 2 h, 3 h, 4 h, 5 h, 6 h, 24 h) for solutions of 100% dimethyl sulfoxide (complexes 4-11) and 5% dimethyl sulfoxide/95% Dulbecco's Modified Eagle Medium (complexes 4, 5 and 8-11) or 10% dimethyl sulfoxide/90% Dulbecco's Modified Eagle Medium (complexes 6 and 7) at concentrations ranging from 7.0×10^-5 M to 3.0×10^-4 M.

[3] = Stability in aqueous medium (dimethyl sulfoxide/Dulbecco's Modified Eagle Medium) by UV-Vis spectroscopy; type: physicochemical; conditions: 5% dimethyl sulfoxide/95% Dulbecco's Modified Eagle Medium; for Relative variation of the maximum absorbance of the π→π* transitions: band 292-296 nm (λmax in column head); for Relative variation of the maximum absorbance of the charge transfer bands: band 358-400 nm (λmax in column head)
Description: as §2

[4] = test system: four human breast cancer cell lines with different levels of expression of the receptor FGFR; test: MTT cytotoxicity assay, comparisons across the cell line panel; type: cell-based; conditions: adopted experimental conditions (48 h)
Description: By way of example, the in vitro cytotoxicity of the conjugate RuPC1, complex 4 and peptide P2 was determined in four human breast cancer cell lines with different levels of expression of the receptor FGFR, namely MDA-MB-231 (FGFR−), MCF-7 (FGFR−), SK-BR-3 (FGFR+), and MDA-MB-134-VI (FGFR+). The cytotoxicity of RuPC1 was also determined in the stated cell lines at controlled pH 6.8 and 7.4. The cytotoxicity of the complexes 5, 8, 9, and the reference complex (2,2′-bipyridyl)(triphenylphosphane)(f-cyclopentadienyl)ruthenium(II) trifluoromethanesulfonate, [RuCp(PPh3)(bipy)][CF3SO3] (TM34) was only determined in the cell line MDA-MB-231. […] The cell viability was evaluated resorting to the MTT ([3-(4,5-dimethylthiazol-2-yl)-2,5-diphenyltetrazolium bromide]) colorimetric assay, which is based on the reduction of the tetrazolium salt to purple formazan by mitochondrial dehydrogenases in metabolically active cells. […] The cell viability (%) was determined relative to the control (cells incubated without compounds) by measuring the absorbance at 570 nm on a PowerWave Xs Bio-Tek Instruments plate spectrophotometer. The respective values of the half maximal inhibitory concentration (IC50) were calculated with the software GraphPad Prism. […]

[5] = test system: SK-BR-3 (FGFR+); test: MTT cytotoxicity assay; conditions: human, 48 h
Description: as §1

[6] = test system: MCF-7 (FGFR−); test: MTT cytotoxicity assay; conditions: human, 48 h
Description: as §1

[7] = test system: MDA-MB-134-VI (FGFR+); test: MTT cytotoxicity assay; conditions: human, 48 h
Description: as §1

Compound: O=S(=O)([O-])C(F)(F)F.[Ru+2].c1cc[cH-]c1.c1ccc(-c2ccccn2)nc1.c1ccc(P(c2ccccc2)c2ccccc2)cc1 [TM34, (2,2′-bipyridyl)(triphenylphosphane)(f-cyclopentadienyl)ruthenium(II) trifluoromethanesulfonate, reference compound]
- IC50 ([1]; read-out: Cytotoxic activity expressed as IC50, Table 5, MDA-MB-231, 37° C.): 0.52 µM

Compound: CCOC(=O)Oc1cc[n+]2c(c1)-c1cc(OC)cc[n+]1[Ru-]2([CH]1C=CC=C1)[PH](c1ccccc1)(c1ccccc1)c1ccccc1.O=S(=O)([O-])C(F)(F)F (stereo not drawn) [compound 11]
- Relative variation of the maximum absorbance of the charge transfer bands ([2]; time 0 h): 0.0%
- Relative variation of the maximum absorbance of the charge transfer bands ([2]; time 0.25 h): 0.0%
- Relative variation of the maximum absorbance of the charge transfer bands ([2]; time 0.5 h): 0.2%
- Relative variation of the maximum absorbance of the charge transfer bands ([2]; time 0.75 h): 0.1%
- Relative variation of the maximum absorbance of the charge transfer bands ([2]; time 1 h): 0.3%
- Relative variation of the maximum absorbance of the charge transfer bands ([2]; time 2 h): 0.1%
- Relative variation of the maximum absorbance of the charge transfer bands ([2]; time 3 h): 0.0%
- Relative variation of the maximum absorbance of the charge transfer bands ([2]; time 4 h): −0.2%
- Relative variation of the maximum absorbance of the charge transfer bands ([2]; time 5 h): −0.3%
- Relative variation of the maximum absorbance of the charge transfer bands ([2]; time 6 h): −0.3%
- Relative variation of the maximum absorbance of the charge transfer bands ([2]; time 24 h): 0.2%
- Relative variation of the maximum absorbance of the π→π* transitions ([3]; time 0 h): 0.0%
- Relative variation of the maximum absorbance of the charge transfer bands ([3]; time 0 h): 0.0%
- Relative variation of the maximum absorbance of the π→π* transitions ([3]; time 0.25 h): −0.2%
- Relative variation of the maximum absorbance of the charge transfer bands ([3]; time 0.25 h): −0.1%
- Relative variation of the maximum absorbance of the π→π* transitions ([3]; time 0.5 h): −0.3%
- Relative variation of the maximum absorbance of the charge transfer bands ([3]; time 0.5 h): 0.0%
- Relative variation of the maximum absorbance of the π→π* transitions ([3]; time 0.75 h): −0.2%
- Relative variation of the maximum absorbance of the charge transfer bands ([3]; time 0.75 h): 0.1%
- Relative variation of the maximum absorbance of the π→π* transitions ([3]; time 1 h): −0.2%
- Relative variation of the maximum absorbance of the charge transfer bands ([3]; time 1 h): 0.1%
- Relative variation of the maximum absorbance of the π→π* transitions ([3]; time 2 h): −0.5%
- Relative variation of the maximum absorbance of the charge transfer bands ([3]; time 2 h): 0.1%
- Relative variation of the maximum absorbance of the π→π* transitions ([3]; time 3 h): −0.4%
- Relative variation of the maximum absorbance of the charge transfer bands ([3]; time 3 h): 0.1%
- Relative variation of the maximum absorbance of the π→π* transitions ([3]; time 4 h): −0.9%
- Relative variation of the maximum absorbance of the charge transfer bands ([3]; time 4 h): 0.0%
- Relative variation of the maximum absorbance of the π→π* transitions ([3]; time 5 h): −0.7%
- Relative variation of the maximum absorbance of the charge transfer bands ([3]; time 5 h): 0.1%
- Relative variation of the maximum absorbance of the π→π* transitions ([3]; time 6 h): −0.4%
- Relative variation of the maximum absorbance of the charge transfer bands ([3]; time 6 h): 0.2%
- Relative variation of the maximum absorbance of the π→π* transitions ([3]; time 24 h): −1.0%
- Relative variation of the maximum absorbance of the charge transfer bands ([3]; time 24 h): 0.4%

Compound: CC(=O)CCC(=O)N[C@@H](C(=O)N[C@@H](CO)C(=O)N1CCC[C@H]1C(=O)N1CCC[C@@H]1C(=O)N[C@@H](CC(C)C)C(=O)N[C@H](C(=O)N[C@@H](CC(C)C)C(=O)NCC(=O)N[C@@H](CCC(N)=O)C(=O)N[C@@H](CC(C)C)C(=O)N[C@@H](CC(C)C)C(=O)N[C@@H](CO)C(N)=O)[C@@H](C)O)C(C)C [peptide P2, 4-oxopetanoyl-NH-^1valine-^2serine-^3proline-^4proline-^5leucine-^6threonine-^7leucine-^8glycine-^9glutamine-^10leucine-^11leucine-^12serine-CONH2] (Levulinoyl-[dV]SP[dP]LTLGQLLS-NH2)
- Cytotoxic activity in words [4]: did not show significant cytotoxic activity
- IC50 [5]: > 100 µM
- IC50 [6]: > 100 µM
- IC50 ([1]; human): > 100 µM
- IC50 [7]: > 100 µM

Reference: patent US20250195463A1, “ORGANOMETALLIC COMPLEX, CONTROLLED-RELEASE MULTI-FUNCTIONAL DRUG, PHARMACEUTICAL COMPOSITION, PROCESSES FOR THE PREPARATION THEREOF AND THEIR USE” (FACULDADE DE CIÊNCIAS DA UNIVERSIDADE DE LISBOA, priority 2022, published 2025)
